Test [1] has as its target T1, GST tagged LXRbeta LBD (ligand binding domain) (Homo sapiens, UniProt P55055).
T1 construct: purchased Invitrogen pv4658.pps
T1 sequence (P55055 222-460 limits assumed): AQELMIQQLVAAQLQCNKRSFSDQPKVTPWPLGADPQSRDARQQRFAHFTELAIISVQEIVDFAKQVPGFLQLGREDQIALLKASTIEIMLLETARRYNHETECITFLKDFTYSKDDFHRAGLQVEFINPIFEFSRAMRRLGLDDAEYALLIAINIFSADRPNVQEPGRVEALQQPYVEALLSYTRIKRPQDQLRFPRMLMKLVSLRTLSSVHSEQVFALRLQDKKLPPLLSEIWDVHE
Put plainly: LanthaScreen TR-FRET Liver X Receptor Coactivator Assay, LXR beta-LBD (co-activator recruitment; IP and % Emax relative to T0901317). As to conditions: for EC50: Inflection Point of co-activator recruitment, LXR beta-LBD, TR-FRET; for Emax: read-out: LXR beta actiivty at max dose (%). The class given is biochemical. Here is the method: (§1) Potency (Inflection Point, IP) and efficacy (Emax) are evaluated via compound-induced co-activator recruitment to glutathione-S-transferase (GST) tagged LXRbeta and LXRalpha LBD (ligand binding domain) proteins in relation to reference dual agonist compound T0901317 (N-(2,2,2-Trifluoroethyl)-N-[4-[2,2,2-trifluoro-1-hydroxy-1-(trifluoromethyl)ethyl]phenyl]benzenesulfonamide) using the LanthaScreen™ TR-FRET Liver X Receptor Coactivator Assays according to manufacturer's instructions (Invitrogen catalog number pv4658.pps and pv4655). While running the LanthaScreen™ TR-FRET Liver X Receptor Coactivator Assay, LXR alpha-LBD or LXR beta-LBD was added to ligand test compounds followed by addition of a mixture of a fluorescein-labelled coactivator peptide and terbium-conjugated anti-GST antibody. After an incubation period at room temperature, TR-FRET (time-resolved fluorescence resonance energy transfer) was measured using a filter-based instrument capable of TR-FRET, e.g. PerkinElmer Envision.
A general note: Time-resolved FRET reads energy transfer from a long-lived donor to a nearby acceptor.

In test [2] the target is T2, GST tagged LXRalpha LBD (ligand binding domain) (Homo sapiens, UniProt Q13133).
T2 construct: purchased Invitrogen pv4655
T2 sequence (Q13133 209-447 limits assumed): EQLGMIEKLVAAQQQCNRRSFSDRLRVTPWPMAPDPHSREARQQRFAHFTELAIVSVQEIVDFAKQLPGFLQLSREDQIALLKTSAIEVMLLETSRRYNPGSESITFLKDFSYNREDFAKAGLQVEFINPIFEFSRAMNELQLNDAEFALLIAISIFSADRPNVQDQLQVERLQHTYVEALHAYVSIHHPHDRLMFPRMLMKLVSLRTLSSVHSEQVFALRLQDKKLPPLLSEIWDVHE
Put plainly: LanthaScreen TR-FRET Liver X Receptor Coactivator Assay, LXR alpha-LBD (co-activator recruitment; IP and % Emax relative to T0901317). The class given is biochemical. As to conditions: for EC50 / LXR alpha IP (nM): Inflection Point of co-activator recruitment, LXR alpha-LBD, TR-FRET; for Emax: read-out: LXR alpha actiivty at max dose (%). Here is the method:
as §1

[3] abbreviates: efficacy at max dose in relation to reference T0901317, LXR beta-LBD.
Where [4] appears, read: efficacy at max dose in relation to reference T0901317, LXR alpha-LBD.

As for `CN(C)C(=O)c1ccc(N2CCC(CCCN(C)C(=O)[C@@](O)(c3ccccc3)C3CCC3)CC2)nc1Cl` [Example 1-23, (S)-2-chloro-6-(4-(3-(2-cyclobutyl-2-hydroxy-N-methyl-2-phenylacetamido)propyl)piperidin-1-yl)-N,N-dimethylnicotinamide], the half-maximal effective concentration (EC50) (as a rule, the midpoint of the concentration-response curve) in test [1] amounted to 64 nM; in test [2] it was 1760 nM. Also, the Emax was 90% in test [1] (setting [3]) and 39% in test [2] (setting [4]).

Turning to `CN(C)C(=O)c1ccc(N2CCC(CCCN(C)C(=O)[C@](O)(c3ccccc3)C3CC3)CC2)nc1Cl` [Example 1-24, (R)-2-chloro-6-(4-(3-(2-cyclopropyl-2-hydroxy-N-methyl-2-phenylacetamido)propyl)piperidin-1-yl)-N,N-dimethylnicotinamide], in test [1], the concentration giving a half-maximal response (EC50) worked out at 351 nM. In addition, the values for the Emax in test [1] (setting [3]) and in test [2] (setting [4]) were 59% and 12%, respectively. The “LXR alpha IP (nM)” value in test [2] is on record as “No IP”.

For the compound `CN(C)C(=O)c1ccc(N2CCC(CCCN(C)C(=O)[C@@](O)(c3ccccc3)C3CC3)CC2)nc1Cl` [Example 1-25, (S)-2-chloro-6-(4-(3-(2-cyclopropyl-2-hydroxy-N-methyl-2-phenylacetamido)propyl)piperidin-1-yl)-N,N-dimethylnicotinamide], the EC50 in test [1] is 110 nM; in test [2], 3360 nM. Also, the results for the Emax in test [1] (setting [3]) and in test [2] (setting [4]) were 71% and 26%, respectively.

Take `CN(C)C(=O)c1ccc(N2CCC(CCCN(C)C(=O)[C@](O)(c3ccccc3)C(F)(F)F)CC2)nc1Cl` [Example 1-26, (R)-2-chloro-N,N-dimethyl-6-(4-(3-(3,3,3-trifluoro-2-hydroxy-N-methyl-2-phenylpropanamido)propyl)piperidin-1-yl)nicotinamide]: in test [1] (setting [3]), the “LXR beta actiivty at max dose (%)” value is listed as 51%. For the same compound, the “LXR alpha IP (nM)” value in test [2] was “No IP”. In test [2] (setting [4]), the “LXR alpha actiivty at max dose (%)” value is 6%.

`COc1cccc([C@](O)(C(=O)N(C)CCCC2CCN(c3ccc(C(=O)N(C)C)c(Cl)n3)CC2)C(F)(F)F)c1` [Example 1-27, (S)-2-chloro-N,N-dimethyl-6-(4-(3-(3,3,3-trifluoro-2-hydroxy-2-(3-methoxyphenyl)-N-methylpropanamido)propyl)piperidin-1-yl)nicotinamide] returned an EC50 in test [1] of 603 nM. Further, the results for the Emax in test [1] (setting [3]) and in test [2] (setting [4]) were 53% and 3%, respectively. Besides, in test [2], the “LXR alpha IP (nM)” value is on record as “No IP”.

With `CCc1cccc([C@@](O)(C(=O)N(C)CCCC2CCN(c3ccc(C(=O)N(C)C)c(Cl)n3)CC2)C(F)(F)F)c1` [Example 1-28, (R)-2-chloro-6-(4-(3-(2-(3-ethylphenyl)-3,3,3-trifluoro-2-hydroxy-N-methylpropanamido)propyl)piperidin-1-yl)-N,N-dimethylnicotinamide], the concentration giving a half-maximal response (EC50) in test [1] turned out to be 67 nM. Moreover, the Emax was 39% in test [1] (setting [3]) and 0% in test [2] (setting [4]). The “LXR alpha IP (nM)” value in test [2] is “No IP”.

For `CN(C)C(=O)c1ccc(N2CCC(CCCN(C)C(=O)[C@](N)(c3ccccc3)C(F)(F)F)CC2)nc1Cl` [Example 1-29, (R)-6-(4-(3-(2-amino-3,3,3-trifluoro-N-methyl-2-phenylpropanamido)propyl)piperidin-1-yl)-2-chloro-N,N-dimethylnicotinamide], in test [1], the EC50 amounted to 396 nM. Further, the Emax in test [1] (setting [3]) amounted to 51%; in test [2] (setting [4]), 8%. In addition, in test [2], the “LXR alpha IP (nM)” value was “No IP”.

For the compound `CN(C)C(=O)c1ccc(N2CCC(CCCN(C)C(=O)[C@@](N)(c3ccccc3)C(F)(F)F)CC2)nc1Cl` [Example 1-30, (S)-6-(4-(3-(2-amino-3,3,3-trifluoro-N-methyl-2-phenylpropanamido)propyl)piperidin-1-yl)-2-chloro-N,N-dimethylnicotinamide], the EC50 in test [1] is 237 nM. For the same compound, the Emax is 47% in test [1] (setting [3]) and 1% in test [2] (setting [4]). For the same compound, the “LXR alpha IP (nM)” value in test [2] was “No IP”.

(Values after US10961215B2, “N-aryl and N-heteroaryl piperidine derivatives as liver X receptor beta agonists, compositions, and their use” (Merck Sharp & Dohme Corp., priority 2016, dated 2021).)
